Experimental data from US20220274987A1, “PYRAZINO [1,2-B]QUINAZOLINE-3,6-DIONES DERIVATIVES, THEIR PRODUCTION AND USES THEREOF” (CIIMAR -CENTRO INTERDISCIPLINAR DE INVESTIGAÇÃO MARINHA E …, priority 2019, published 2022).
≈ marks a conversion by molar mass, not a printed value. Where two headings read alike, the source gives them in different places.

Columns and labels:
[1] = tested on: Plasmodium falciparum 3D7 strain; assay: In vitro susceptibility assay of P. falciparum, SYBR Green I; assay type: cell-based; details: for IC50: Plasmodium falciparum; for antimalarial activity (in words): P. falciparum 3D7
Procedure: The principle of the in vitro susceptibility test to malaria is to assess the degree of development of parasites P. falciparum in the presence of different concentrations of the compounds.
In the present disclosure, the antimalarial activity was also evaluated. Each compound was lyophilized and solubilized in DMSO (Sigma-Aldrich) to obtain a final concentration of 5 mM. Some intermediate dilutions were made to achieve the final concentration of 10 μM in the first well of the plate.
In an embodiment, the culture of P. falciparum was carried out as follows. […] Parasites were cultivated at 5% hematocrit, 37° C. and atmosphere with 5% of CO2, human serum was replaced with 0.5% AlbuMAXII (Invitrogen™) in the culture medium. Synchronized cultures were obtained by treatments with a 5% (m/v) solution of D-sorbitol (Sigma-Aldrich).
In the present disclosure, the in vitro susceptibility assay of P. falciparum using SYBR Green I was carried out as follows. […] Briefly, early ring stage parasites (>80% of rings, 3% haematocrit and 1% parasitaemia) were tested in duplicate in a 96-well plate and incubated with the compounds for 48 h (37° C., 5% CO2), parasite growth was assessed with SYBR Green I (Thermo Fisher Scientific). Each compound was tested in concentrations ranging from 10 to 0.001 μM. Fluorescence intensity was measured with a microplate reader with excitation and emission wavelengths of 485 and 535 nm, respectively, and analysed by nonlinear regression using GraphPad Prism 5 demo version to determine

[2] = tested on: Staphylococcus aureus ATCC 29213; assay: MIC/MBC broth dilution (CLSI), S. aureus reference strain; assay type: cell-based; details: for MBC / MIC: Staphylococcus aureus, ATCC29213
Excerpt: (§1) In the present disclosure, two Gram-positive—Staphylococcus aureus ATCC 29213 and Enterococcus faecalis ATCC […] and two Gram-negative—Escherichia coli ATCC 25922 and Pseudomonas aeruginosa ATCC 27853—reference bacterial strains were used. When it was possible to determine a minimal inhibitory concentration (MIC) value for these strains, clinically relevant strains were also used. These included methicillin-resistant S. uareus (MRSA) 66/1, isolated from public buses, as well as a isolate sensitive to the most commonly used antibiotic families (S. aureus 40/61/24) and two vancomycin-resistant Enterococcus (VRE) strains isolated from river water, E. faecalis B3/101 and E. faecalis A5/102, which is sensitive to ampicillin. Frozen stocks of all strains were grown on Mueller-Hinton agar (MH-BioKar Diagnostics, Allone, France) at 37° C. for 24 h. All bacterial strains were sub-cultured on MH agar and incubated overnight at 37° C. before each assay, in order to obtain fresh cultures.
(§2) An initial screening of the antibacterial activity of the compounds was performed by the Kirby-Bauer disk diffusion method, as recommended by the Clinical and Laboratory Standards institute (CLSI). Briefly, sterile 6 mm blank paper disks (Oxoid, Basingstoke, England) impregnated with 15 μg of each compound were placed on inoculated MH agar plates. A blank disk with DMSO was used as a negative control. MH inoculated plates were incubated for 18-20 hours at 37° C. At the end of the incubation, the inhibition halos where measured. The minimal inhibitory concentration (MIC) was used to determine the antibacterial activity of each compound, in accordance with the recommendations of the CLSI. Two-fold serial dilutions of the compounds were prepared in Mueller-Hinton Broth 2 (MHB2-Sigma-Aldrich, St. Louis, Mo., USA) within the concentration range of 0.062-64 μg/mL. Cefotaxime (CTX) ranging between 0.031-16 μg/mL was used as a control. Sterility and growth controls were included in each assay. Purity check and colony counts of the inoculum suspensions were also performed in order to ensure that the final inoculum density closely approximates the intended number ([…]). The MIC was determined as the lowest concentration at which no visible growth was observed. The minimal bactericidal concentration (MBC) was assessed by spreading 10 μL of culture collected from wells showing no visible growth on MH agar plates. The MBC was determined as the lowest concentration at which no colonies grew after 16-18 hours incubation at 37° C. These assays were performed in duplicate.

E. faecalis ATCC 29212 = assay: MIC/MBC broth dilution (CLSI), E. faecalis reference strain; assay type: cell-based, Enterococcus faecalis
Excerpt: as §1, §2

S. aureus 40/61/24 = assay: MIC/MBC broth dilution (CLSI), sensitive clinical isolate; assay type: cell-based; details: Staphylococcus aureus
Excerpt: as §1, §2

S. aureus 66/1 (MRSA) = assay: MIC/MBC broth dilution (CLSI), MRSA; assay type: cell-based; details: Staphylococcus aureus
Excerpt: as §1, §2

E. faecalis A5/102 (VRE) = assay: MIC/MBC broth dilution (CLSI), VRE sensitive to ampicillin; assay type: cell-based; details: Enterococcus faecalis
Excerpt: as §1, §2

E. faecalis B3/101 (VRE) = assay: MIC/MBC broth dilution (CLSI), VRE; assay type: cell-based; details: Enterococcus faecalis
Excerpt: as §1, §2

[3] = P. falciparum (3D7), 48 h, read-out: IC50
[4] = S. aureus ATCC 29213, read-out: MIC
[5] = Enterococcus faecalis, ATCC29212
[6] = Enterococcus faecalis, ATCC29212, read-out: MIC
[7] = S. aureus 40/61/24, read-out: MIC

Structure (SMILES) | IC50 [1, 3] [nM] | antibacterial (inhibitory) effect (in words) ([2]; S. aureus ATCC 29213) | MBC ([2]; S. aureus ATCC 29213) [µg/mL] | MIC [2, 4] [µg/mL] | MBC (E. faecalis ATCC 29212; [5]) [µg/mL] | MBC (S. aureus 40/61/24; S. aureus 40/61/24) [µg/mL] | MBC (S. aureus 66/1 (MRSA)) [µg/mL] | MIC (S. aureus 66/1 (MRSA)) [µg/mL] | other results
O=C1N[C@@H](Cc2ccc(OCc3ccccc3)cc2)c2nc3c(Cl)cc(Cl)cc3c(=O)n2[C@@H]1Cc1c[nH]c2ccccc12 [Compound 38] |  |  |  |  |  |  |  |  | IC50 ([1]; 3D7, 48 h): 4000 ± 20 nM
CC(C)[C@H]1NC(=O)[C@@H](Cc2c[nH]c3ccccc23)n2c1nc1ccccc1c2=O [Compound 13] | 150 ± 50 |  |  |  |  |  |  |  | antimalarial activity (in words) [1]: decreased activity
CC(C)C[C@H]1NC(=O)[C@H](Cc2c[nH]c3ccccc23)n2c1nc1ccccc1c2=O [Compound 15] | 2000 ± 320 |  |  |  |  |  |  |  | 
C[C@H]1NC(=O)[C@@H](Cc2c[nH]c3ccccc23)n2c1nc1ccccc1c2=O [Compound 26] | 3680 ± 620 |  |  |  |  |  |  |  | 
CC(C)C[C@@H]1NC(=O)[C@@H](Cc2c[nH]c3ccccc23)n2c1nc1ccc(Br)cc1c2=O [Compound 36, (1s,4R)-4-((1H-indol-3-yl)methyl)-8-bromo-1-isobutyl-1,2-dihydro-6H-pyrazino[2,1-b]quinazoline-3,6(4H)-dione] |  | inhibitory effect | > 64 | 16 (≈ 33.4 µM) | > 64 | > 64 | > 64 | > 64 | MIC (E. faecalis ATCC 29212; [6]): > 64 µg/mL; MIC (S. aureus 40/61/24; [7]): > 64 µg/mL
CC(C)C[C@@H]1NC(=O)[C@@H](Cc2c[nH]c3ccccc23)n2c1nc1ccc(O)cc1c2=O [Compound 39] | 730 ± 70 |  |  |  |  |  |  |  | 
CC(C)C[C@@H]1NC(=O)[C@@H](Cc2c[nH]c3ccccc23)n2c1nc1cnccc1c2=O [Compound 42, (1S,4R)-4-((1H-indol-3-yl)methyl)-1-isobutyl-1,2-dihydro-6H-pyrazino[1,2-α]pyrido[3,4-d]pyrimidine-3,6(4H)-dione] | 4000 ± 20 |  |  |  |  |  |  |  | 
CC(C)[C@@H]1NC(=O)[C@@H](Cc2c[nH]c3ccccc23)n2c1nc1c(Cl)cc(Cl)cc1c2=O [Compound 30, (1S, 4R)-4-((1H -indol-3-yl)methyl)-8,10-dichloro-1-isopropyl-1,2-dihydro-6H-pyrazino[2,1-b]quinazoline-3,6(4H)-dione] |  | inhibitory effect | > 64 | 16 (≈ 35.1 µM) | > 64 | > 64 | > 64 | > 64 | MIC (E. faecalis ATCC 29212; [6]): > 64 µg/mL; MIC (S. aureus 40/61/24; [7]): > 64 µg/mL
CC(C)C[C@@H]1NC(=O)[C@@H](Cc2c[nH]c3ccccc23)n2c1nc1ccc(Cl)cc1c2=O [Compound 28] |  | inhibitory effect | > 64 | 32 (≈ 73.6 µM) | > 64 | > 64 | > 64 | > 64 | MBC (E. faecalis A5/102 (VRE)): > 64 µg/mL; MIC (E. faecalis A5/102 (VRE)): 64 µg/mL (≈ 147 µM); antibacterial (inhibitory) effect (in words) (E. faecalis ATCC 29212): inhibitory effect; MIC (E. faecalis ATCC 29212; [5]): 32 µg/mL (≈ 73.6 µM); MIC (S. aureus 40/61/24; 40/61/24): 64 µg/mL (≈ 147 µM); MBC (E. faecalis B3/101 (VRE)): > 64 µg/mL; MIC (E. faecalis B3/101 (VRE)): > 64 µg/mL
CCC(C)[C@@H]1NC(=O)[C@@H](Cc2c[nH]c3ccccc23)n2c1nc1c(Cl)cc(Cl)cc1c2=O (stereo partly drawn) [Compound 32, (1S, 4R)-4((1H-indol-3-yl)methyl)-1-((S)-sec-butyl) 8,10-dichloro-1,2-dihydro-6H-pyrazinoi[2,1-b]quinazoline-3,6(4H)-dione] |  | inhibitory effect | > 64 | 4 (≈ 8.52 µM) | > 64 | > 64 | > 64 | 8 (≈ 17 µM) | MIC (E. faecalis ATCC 29212; [6]): > 64 µg/mL; IC50 ([1]; 3D7, 48 h): 1510 ± 530 nM; MIC (S. aureus 40/61/24; 40/61/24): 8 µg/mL (≈ 17 µM)
CC[C@H](C)[C@@H]1NC(=O)[C@@H](Cc2c[nH]c3ccccc23)n2c1nc1ccc(Cl)cc1c2=O [Compound 29, (1S,4R)-4-((1H-indol-3-yl)methyl)-1-((S)-sec-butyl)-8-chloro-1,2-dihydro-6H-pyrazino[2,1-b]quinazoline-3,6(4H)-dione] |  | inhibitory effect | > 64 |  | > 64 | > 64 | > 64 | > 64 | MIC [2]: 16 µg/mL (≈ 36.8 µM); MBC (E. faecalis A5/102 (VRE)): > 64 µg/mL; MIC (E. faecalis A5/102 (VRE)): 64 µg/mL (≈ 147 µM); antibacterial (inhibitory) effect (in words) (E. faecalis ATCC 29212): inhibitory effect; MIC (E. faecalis ATCC 29212; [5]): 32 µg/mL (≈ 73.6 µM); MIC (S. aureus 40/61/24; 40/61/24): 64 µg/mL (≈ 147 µM); MBC (E. faecalis B3/101 (VRE)): > 64 µg/mL; MIC (E. faecalis B3/101 (VRE)): > 64 µg/mL
O=C1N[C@H](Cc2ccc(O)cc2)c2nc3ccccc3c(=O)n2[C@H]1Cc1c[nH]c2ccccc12 [Compound 25] | 4180 ± 30 |  |  |  |  |  |  |  | 
CC(C)C[C@@H]1NC(=O)[C@@H](Cc2cc3ccccc3[nH]2)n2c1nc1cc(-c3nnnn3C)ccc1c2=O [Compound 44, (1S,4R)-4-((1H-indol-2-yl)methyl)-1-isobutyl-9-(1-methyl-1H-tetrazol-5-yl)-1,2-dihydro-6H-pyrazino [2,1-b]quinazoline-3,6(4H)-dione] | 1020 ± 270 |  |  |  |  |  |  |  | antimalarial activity (in words) [1]: weak activity
CC(C)[C@@H]1NC(=O)[C@H](Cc2c[nH]c3ccccc23)n2c1nc1ccccc1c2=O [Compound 10] |  |  |  |  |  |  |  |  | antimalarial activity (in words) [1]: inactive
CC(C)C[C@@H]1NC(=O)[C@@H](Cc2c[nH]c3ccccc23)n2c1nc1ccc(I)cc1c2=O [Compound 35, (1S,4R)-4-((1H-indol-3-yl)methyl)-8-iodo-1-isobutyl-1,2-dihydro-6H-pyrazino[2,1-b]quinazoline-3,6(4H)-dione] |  | inhibitory effect | > 64 | 16 (≈ 30.4 µM) | > 64 | > 64 | > 64 | > 64 | MIC (E. faecalis ATCC 29212; [6]): > 64 µg/mL; MIC (S. aureus 40/61/24; [7]): 64 µg/mL (≈ 122 µM)
CCN(CC)CCCC(C)Nc1ccnc2cc(Cl)ccc12 (stereo not drawn) [CQ (6), chloroquine, reference compound] |  |  |  |  |  |  |  |  | IC50 ([1]; 3D7): 15.08 ± 0.08 nM
CC(C)[C@@H]1NC(=O)[C@@H](Cc2c[nH]c3ccccc23)n2c1nc1ccc(Cl)cc1c2=O [Compound 27, (1S, 4R)-4-((1H-indol-3-yl)methyl)-8-chloro-1-isopropyl-1,2-dihydro-6H-pyrazino[2,1-b]quinazoline-3,6(4H)-dione] |  | inhibitory effect | > 64 | 32 (≈ 76 µM) | > 64 | > 64 | > 64 | > 64 | MBC (E. faecalis A5/102 (VRE)): > 64 µg/mL; MIC (E. faecalis A5/102 (VRE)): 64 µg/mL (≈ 152 µM); MIC (E. faecalis ATCC 29212): 64 µg/mL (≈ 152 µM); antibacterial (inhibitory) effect (in words) (E. faecalis ATCC 29212): inhibitory effect; MIC (E. faecalis ATCC 29212; [5]): 32 µg/mL (≈ 76 µM); MIC (S. aureus 40/61/24; 40/61/24): 64 µg/mL (≈ 152 µM); MBC (E. faecalis B3/101 (VRE)): > 64 µg/mL; MIC (E. faecalis B3/101 (VRE)): > 64 µg/mL
CC(C)C[C@H]1NC(=O)[C@@H](Cc2c[nH]c3ccccc23)n2c1nc1ccccc1c2=O [Compound 17] | 470 ± 220 |  |  |  |  |  |  |  | antimalarial activity (in words) [1]: decreased activity
CC(C)C[C@@H]1NC(=O)[C@H](Cc2c[nH]c3ccccc23)n2c1nc1ccccc1c2=O [Compound 14] |  |  |  |  |  |  |  |  | antimalarial activity (in words) [1]: inactive
CC(C)C[C@@H]1NC(=O)[C@@H](Cc2c[nH]c3ccccc23)n2c1nc1ncccc1c2=O [Compound 43] | 3760 |  |  |  |  |  |  |  | 
